US11707462B2, “Checkpoint kinase 1 (CHK1) inhibitors and uses thereof” (Boundless Bio, Inc., priority 2021, dated 2023)

Legend:
[1] = target: T1, Full-length human Chk1 protein (Homo sapiens, UniProt O14757); assay: Kinase HTRF biochemical assay (HTRF KinEASE), Chk1 enzyme activity; settings: full-length human Chk1, ATP 1 mM, 60 minutes at room temperature
T1 construct: purchased Carna Biosciences, Inc. 02-117
T1 sequence (O14757 1-476): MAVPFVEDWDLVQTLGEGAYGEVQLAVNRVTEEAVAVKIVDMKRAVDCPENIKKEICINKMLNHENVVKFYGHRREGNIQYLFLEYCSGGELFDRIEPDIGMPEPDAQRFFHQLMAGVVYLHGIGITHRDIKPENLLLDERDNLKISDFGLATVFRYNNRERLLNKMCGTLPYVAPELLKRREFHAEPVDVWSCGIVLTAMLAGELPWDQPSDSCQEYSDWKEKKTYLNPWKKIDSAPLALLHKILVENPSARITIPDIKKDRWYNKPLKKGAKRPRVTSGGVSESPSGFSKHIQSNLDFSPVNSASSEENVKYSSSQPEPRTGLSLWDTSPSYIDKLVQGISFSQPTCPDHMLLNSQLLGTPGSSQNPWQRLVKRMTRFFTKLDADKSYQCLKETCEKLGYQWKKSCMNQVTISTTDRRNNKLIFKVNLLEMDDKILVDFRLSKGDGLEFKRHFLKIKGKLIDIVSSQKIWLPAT
Procedure, shortened: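 Full-length human Chk1 (0.012 ng/μL) in buffer with 5 mM MgCl2 and 1 mM DTT, preincubated with compound 10 min at room temperature; reaction with 120 nM biotinylated STK substrate 1 and 1 mM ATP for 60 min at room temperature. HTRF detection via cryptate antibody/streptavidin-XL665; IC50 from 10-point duplicate curves.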

p-CHK1 (Ser345) = assay: AlphaLISA SureFire Ultra p-CHK1 (Ser345) cellular assay in HT29 cells; type: cell-based
Method: Example B: AlphaLisa Cellular Assay
Compound activity in cells was measured using an AlphaLISA® SureFire® Ultra™ p-CHK1 (Ser345) assay (Perkin Elmer, catalog no. ALSU-PCHK1-A10K). HT29 cells were cultured in McCoy 5A medium with 10% FBS and 1% penicillin-streptomycin and seeded to 96-well plates (Corning, catalog no. 3599). Compounds were serially diluted in DMSO over a 10-point dose range with 3-fold dilution and to each well containing cells was added compound solution. Plates were centrifuged at 1000 rpm for 30 seconds. Plates were incubated at 37° C. for 16 h. Supernatant was removed by flicking the plate against a paper towel. Wells were washed once with PBS solution. To each well was added freshly prepared lysis buffer and plates were agitated on a plate shaker at 400 rpm for 30 min. The 96-well cell plates were centrifuged at 1500 rpm for 1 minute. From each well was transferred 10 μL of the lysates to a 384-well Optiplate™ (Perkin Elmer, catalog no. 6007290). To each well was added Acceptor Mix (5 μL) and the plates were sealed and wrapped in foil. Plates were agitated on a plate shaker for 2 minutes, then incubated at room temperature for 1 h. To each well was added Donor Mix (5 μL) and the plates were sealed and wrapped in foil. Plates were agitated on a plate shaker for 2 minutes, then incubated at room temperature for 1 h. AlphaLisa signal was read on an EnVision multimode plate reader (Perkin Elmer). Data were fit to dose-response curves using XLfit (IDBS, Surrey, UK) or Prism (GraphPad Software, La Jolla, Calif., US) to calculate IC50 values for each compound tested.

[2] = Homo sapiens, HT-29, 16 h at 37° C.

Compound	IC50 [1]	IC50 (p-CHK1 (Ser345); [2])	IC50 (p-CHK1 (Ser345); 16 h at 37° C.)
N#Cc1cnc(Nc2cc(-c3c(F)cccc3O[C@H]3CCCC[C@H](N)C3)[nH]n2)cn1 [Example 3-38, 5-((5-(2-(((1S,3S)-3-aminocycloheptyl)oxy)-6-fluorophenyl)-1H-pyrazol-3-yl)amino)pyrazine-2-carbonitrile]	≤ 10 nM	50 to 100 nM	
CN[C@@H]1CC[C@@H](Oc2ccc(C)nc2-c2cc(Nc3cnc(C#N)cn3)n[nH]2)C1 [Example 3-45, 5-((5-(6-methyl-3-(((1R,3R)-3-(methylamino)cyclopentyl)oxy)pyridin-2-yl)-1H-pyrazol-3-yl)amino)pyrazine-2-carbonitrile]	≤ 10 nM	≤ 50 nM	
CN[C@H]1C[C@H](Oc2ccccc2-c2cc(Nc3cnc(C#N)cn3)n[nH]2)C1 [Example 1-38, 5-((5-(2-((1r,3r)-3-(methylamino)cyclobutoxy)phenyl)-1H-pyrazol-3-yl)amino)pyrazine-2-carbonitrile]	10 to 100 nM	100 to 500 nM	
COc1ccc(F)c(O[C@@H]2CC[C@H](N)C2)c1-c1cc(Nc2cnc(C#N)cn2)n[nH]1 [Example 1-27, 5-((5-(2-(((1R,3S)-3-aminocyclopentyl)oxy)-3-fluoro-6-methoxyphenyl)-1H-pyrazol-3-yl)amino)pyrazine-2-carbonitrile]	10 to 100 nM	100 to 500 nM	
N#Cc1cnc(Nc2cc(-c3c(F)cccc3O[C@@H]3CC[C@H]3N)[nH]n2)cn1 [Example 3-33, 5-((5-(2-((1R,2R)-2-aminocyclobutoxy)-6-fluorophenyl)-1H-pyrazol-3-yl)amino)pyrazine-2-carbonitrile]	10 to 100 nM	50 to 100 nM	
CN(C)[C@@H]1CC[C@@H](Oc2cccc(F)c2-c2cc(Nc3cnc(C#N)cn3)n[nH]2)C1 [Example 5-4, 5-((5-(2-(((1R,3R)-3-(dimethylamino)cyclopentyl)oxy)-6-fluorophenyl)-1H-pyrazol-3-yl)amino)pyrazine-2-carbonitrile]	100 to 500 nM	> 1000 nM	
CN[C@@H]1CC[C@@H](Oc2ccc(F)c(F)c2-c2cc(Nc3cnc(C#N)cn3)n[nH]2)C1 [Example 3-1, 5-((5-(2,3-difluoro-6-(((1R,3R)-3-(methylamino)cyclopentyl)oxy)phenyl)-1H-pyrazol-3-yl)amino)pyrazine-2-carbonitrile]	10 to 100 nM	100 to 500 nM	
COc1c(F)ccc(O[C@H]2C[C@H](N)C2)c1-c1cc(Nc2cnc(C#N)cn2)n[nH]1 [Example 2-3, 5-((5-(6-((1r,3r)-3-aminocyclobutoxy)-3-fluoro-2-methoxyphenyl)-1H-pyrazol-3-yl)amino)pyrazine-2-carbonitrile]	10 to 100 nM	100 to 500 nM	
N#Cc1cnc(Nc2cc(-c3ccccc3O[C@@H]3CC[C@@H](N)C3)[nH]n2)cn1 [Example 1-53, 5-((5-(2-(((1R,3R)-3-aminocyclopentyl)oxy)phenyl)-1H-pyrazol-3-yl)amino)pyrazine-2-carbonitrile]	≤ 10 nM	50 to 100 nM	
COc1cc(F)c(-c2cc(Nc3cnc(C#N)cn3)n[nH]2)c(O[C@@H]2CC[C@H](N)C2)c1 [Example 1-41, 5-((5-(2-(((1R,3S)-3-aminocyclopentyl)oxy)-6-fluoro-4-methoxyphenyl)-1H-pyrazol-3-yl)amino)pyrazine-2-carbonitrile]	≤ 10 nM	100 to 500 nM	
Cc1ccc(O[C@H]2C[C@H](N)C2)c(-c2cc(Nc3cnc(C#N)cn3)n[nH]2)n1 [Example 1-62, 5-((5-(3-((1r,3r)-3-aminocyclobutoxy)-6-methylpyridin-2-yl)-1H-pyrazol-3-yl)amino)pyrazine-2-carbonitrile]	10 to 100 nM	100 to 500 nM	
COc1cccc(O[C@H]2CC3(C[C@@H](N)C3)C2)c1-c1cc(Nc2cnc(C#N)cn2)n[nH]1 (some centres unmarked) [Example 3-11, 5-((5-(2-((6-aminospiro[3.3]heptan-2-yl)oxy)-6-methoxyphenyl)-1H-pyrazol-3-yl)amino)pyrazine-2-carbonitrile]	≤ 10 nM		≤ 50 nM
Cc1ccc(O[C@@H]2CC[C@H](N)C2)c(-c2cc(Nc3cnc(C#N)cn3)n[nH]2)n1 [Example 1-57]	≤ 10 nM	50 to 100 nM	
N#Cc1cnc(Nc2cc(-c3c(F)cccc3O[C@@H]3CCCC[C@H](N)C3)[nH]n2)cn1 [Example 3-35, 5-((5-(2-(((1R,3S)-3-aminocycloheptyl)oxy)-6-fluorophenyl)-1H-pyrazol-3-yl)amino)pyrazine-2-carbonitrile]	≤ 10 nM	≤ 50 nM	
COc1c(Cl)ccc(O[C@@H]2CC[C@H](N)C2)c1-c1cc(Nc2cnc(C#N)cn2)n[nH]1 [Example 4-2, 5-((5-(6-(((1R,3S)-3-aminocyclopentyl)oxy)-3-chloro-2-methoxyphenyl)-1H-pyrazol-3-yl)amino)pyrazine-2-carbonitrile]	10 to 100 nM	500 to 1000 nM	
COc1cccc(O[C@H]2C[C@H](N)C2)c1-c1cc(Nc2cnc(C#N)cn2)n[nH]1 [Example 1-5, 5-((5-(2-((1r,3r)-3-aminocyclobutoxy)-6-methoxyphenyl)-1H-pyrazol-3-yl)amino)pyrazine-2-carbonitrile]	≤ 10 nM	≤ 50 nM	
COc1cccc(O[C@@H]2CC[C@@H](N(C)C)C2)c1-c1cc(Nc2cnc(C#N)cn2)n[nH]1 [Example 1-48, 5-((5-(2-(((1R,3R)-3-(dimethylamino)cyclopentyl)oxy)-6-methoxyphenyl)-1H-pyrazol-3-yl)amino)pyrazine-2-carbonitrile]	≤ 10 nM	50 to 100 nM	
COc1cccc(O[C@H]2CC[C@@H]2N)c1-c1cc(Nc2cnc(C#N)cn2)n[nH]1 [Example 3-5, 5-((5-(2-((1S,2S)-2-aminocyclobutoxy)-6-methoxyphenyl)-1H-pyrazol-3-yl)amino)pyrazine-2-carbonitrile]	≤ 10 nM	≤ 50 nM	
N#Cc1cnc(Nc2cc(-c3c(OCC4CC4)cccc3O[C@H]3C[C@H](N)C3)[nH]n2)cn1 [Example 1-32, 5-((5-(2-((1r,3r)-3-aminocyclobutoxy)-6-(cyclopropylmethoxy)phenyl)-1H-pyrazol-3-yl)amino)pyrazine-2-carbonitrile]	10 to 100 nM	500 to 1000 nM	
N#Cc1cnc(Nc2cc(-c3nc(C4CC4)ccc3O[C@@H]3CC[C@H](N)C3)[nH]n2)cn1 [Example 4-5, 5-((5-(3-(((1R,3S)-3-aminocyclopentyl)oxy)-6-cyclopropylpyridin-2-yl)-1H-pyrazol-3-yl)amino)pyrazine-2-carbonitrile]	≤ 10 nM	≤ 50 nM	
COc1c(F)ccc(O[C@H]2CC[C@H](N)CC2)c1-c1cc(Nc2cnc(C#N)cn2)n[nH]1 [Example 1-20, 5-((5-(6-(((1r,4r)-4-aminocyclohexyl)oxy)-3-fluoro-2-methoxyphenyl)-1H-pyrazol-3-yl)amino)pyrazine-2-carbonitrile]	10 to 100 nM	100 to 500 nM	
COc1cc(F)cc(O[C@H]2C[C@H](N)C2)c1-c1cc(Nc2cnc(C#N)cn2)n[nH]1 [Example 1-14, 5-((5-(2-((1r,3r)-3-aminocyclobutoxy)-4-fluoro-6-methoxyphenyl)-1H-pyrazol-3-yl)amino)pyrazine-2-carbonitrile]	≤ 10 nM	≤ 50 nM	
CN[C@H]1C[C@H](Oc2cccc(OC)c2-c2cc(Nc3cnc(C#N)cn3)n[nH]2)C1 [Example 1-16, 5-((5-(2-methoxy-6-((1r,3r)-3-(methylamino)cyclobutoxy)phenyl)-1H-pyrazol-3-yl)amino)pyrazine-2-carbonitrile]	10 to 100 nM	≤ 50 nM	
N#Cc1cnc(Nc2cc(-c3ccccc3O[C@@H]3CC[C@H](N)C3)[nH]n2)cn1 [Example 1-52, 5-((5-(2-(((1R,3S)-3-aminocyclopentyl)oxy)phenyl)-1H-pyrazol-3-yl)amino)pyrazine-2-carbonitrile]	10 to 100 nM	100 to 500 nM	
CN[C@@H]1CC[C@@H](Oc2ccc(C)c(F)c2-c2cc(Nc3cnc(C#N)cn3)n[nH]2)C1 [Example 3-20, 5-((5-(2-fluoro-3-methyl-6-(((1R,3R)-3-(methylamino)cyclopentyl)oxy)phenyl)-1H-pyrazol-3-yl)amino)pyrazine-2-carbonitrile]	≤ 10 nM	≤ 50 nM	
